Experimental data: the kinase profiling compilation of Christmann-Franck et al. (2016)

Assays:
EPHA4 (human) = EPHA4 (human) (UniProt P54764)
MAP3K1 (human) = MAP3K1 (human) (UniProt Q13233)
PIK3C2B (human) = PIK3C2B (human) (UniProt O00750)
MAP2K5 (human) = MAP2K5 (human) (UniProt Q13163)
FYN (human) = FYN (human) (UniProt P06241)
IRAK3 (human) = IRAK3 (human) (UniProt Q9Y616)
MAP3K2 (human) = MAP3K2 (human) (UniProt Q9Y2U5)
PDPK1 (human) = PDPK1 (human) (UniProt O15530)
LYN (human) = LYN (human) (UniProt P07948)
Sequence of LYN (human) (P07948 whole entry, looked up): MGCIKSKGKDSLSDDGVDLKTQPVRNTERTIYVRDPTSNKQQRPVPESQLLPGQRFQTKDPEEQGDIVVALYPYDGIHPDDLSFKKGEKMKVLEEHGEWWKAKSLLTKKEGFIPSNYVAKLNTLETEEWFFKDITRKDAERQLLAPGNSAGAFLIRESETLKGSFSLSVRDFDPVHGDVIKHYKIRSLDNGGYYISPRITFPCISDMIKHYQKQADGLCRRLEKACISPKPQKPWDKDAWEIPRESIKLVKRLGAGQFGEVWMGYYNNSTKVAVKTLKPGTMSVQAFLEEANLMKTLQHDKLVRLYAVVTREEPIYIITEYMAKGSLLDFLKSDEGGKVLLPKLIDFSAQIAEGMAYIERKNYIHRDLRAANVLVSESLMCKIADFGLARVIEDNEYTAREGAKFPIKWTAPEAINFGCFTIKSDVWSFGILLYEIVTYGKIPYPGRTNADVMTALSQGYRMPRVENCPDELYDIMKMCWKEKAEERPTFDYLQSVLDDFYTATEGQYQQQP

Sequence of MAP2K5 (human) (Q13163 whole entry, looked up): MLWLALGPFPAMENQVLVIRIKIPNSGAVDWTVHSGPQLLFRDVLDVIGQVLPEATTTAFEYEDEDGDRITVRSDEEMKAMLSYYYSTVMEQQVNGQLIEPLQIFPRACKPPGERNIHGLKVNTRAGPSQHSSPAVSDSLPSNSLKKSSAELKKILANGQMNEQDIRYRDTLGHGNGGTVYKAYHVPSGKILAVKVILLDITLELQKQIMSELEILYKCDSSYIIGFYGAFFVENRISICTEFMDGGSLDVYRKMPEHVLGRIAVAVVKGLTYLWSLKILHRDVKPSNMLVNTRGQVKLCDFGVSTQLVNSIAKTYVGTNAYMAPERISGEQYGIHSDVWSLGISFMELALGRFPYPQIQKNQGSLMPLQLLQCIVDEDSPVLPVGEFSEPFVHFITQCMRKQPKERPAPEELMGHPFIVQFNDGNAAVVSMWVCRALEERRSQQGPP
Sequence of FYN (human) (P06241 whole entry, looked up): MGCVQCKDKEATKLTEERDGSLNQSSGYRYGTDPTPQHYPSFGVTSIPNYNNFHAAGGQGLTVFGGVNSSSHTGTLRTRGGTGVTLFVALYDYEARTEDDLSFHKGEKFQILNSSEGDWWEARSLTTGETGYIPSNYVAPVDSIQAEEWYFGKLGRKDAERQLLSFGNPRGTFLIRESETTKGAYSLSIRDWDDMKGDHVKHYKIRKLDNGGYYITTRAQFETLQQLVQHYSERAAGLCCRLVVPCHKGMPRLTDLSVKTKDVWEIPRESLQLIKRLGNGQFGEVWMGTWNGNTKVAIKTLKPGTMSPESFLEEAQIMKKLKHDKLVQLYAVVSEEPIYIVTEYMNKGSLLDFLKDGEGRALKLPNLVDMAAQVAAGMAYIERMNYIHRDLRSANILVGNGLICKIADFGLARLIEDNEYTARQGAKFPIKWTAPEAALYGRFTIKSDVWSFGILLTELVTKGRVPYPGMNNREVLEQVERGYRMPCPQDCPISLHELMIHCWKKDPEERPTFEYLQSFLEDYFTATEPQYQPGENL
Sequence of PDPK1 (human) (O15530 whole entry, looked up): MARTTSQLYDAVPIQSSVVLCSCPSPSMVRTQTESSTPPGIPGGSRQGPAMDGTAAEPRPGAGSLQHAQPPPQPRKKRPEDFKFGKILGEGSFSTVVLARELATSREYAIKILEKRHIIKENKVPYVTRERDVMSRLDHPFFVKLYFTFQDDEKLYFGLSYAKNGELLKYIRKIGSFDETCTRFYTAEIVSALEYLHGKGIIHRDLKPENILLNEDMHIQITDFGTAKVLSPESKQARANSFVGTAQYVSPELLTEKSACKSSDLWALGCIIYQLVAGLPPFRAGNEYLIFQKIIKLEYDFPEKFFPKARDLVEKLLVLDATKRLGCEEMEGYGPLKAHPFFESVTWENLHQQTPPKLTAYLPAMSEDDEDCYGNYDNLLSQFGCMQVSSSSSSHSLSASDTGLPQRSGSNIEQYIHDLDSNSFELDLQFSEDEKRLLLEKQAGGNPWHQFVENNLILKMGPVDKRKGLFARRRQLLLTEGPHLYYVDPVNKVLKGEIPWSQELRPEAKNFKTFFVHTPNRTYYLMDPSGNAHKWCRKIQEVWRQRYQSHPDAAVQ
Sequence of MAP3K2 (human) (Q9Y2U5 whole entry, looked up): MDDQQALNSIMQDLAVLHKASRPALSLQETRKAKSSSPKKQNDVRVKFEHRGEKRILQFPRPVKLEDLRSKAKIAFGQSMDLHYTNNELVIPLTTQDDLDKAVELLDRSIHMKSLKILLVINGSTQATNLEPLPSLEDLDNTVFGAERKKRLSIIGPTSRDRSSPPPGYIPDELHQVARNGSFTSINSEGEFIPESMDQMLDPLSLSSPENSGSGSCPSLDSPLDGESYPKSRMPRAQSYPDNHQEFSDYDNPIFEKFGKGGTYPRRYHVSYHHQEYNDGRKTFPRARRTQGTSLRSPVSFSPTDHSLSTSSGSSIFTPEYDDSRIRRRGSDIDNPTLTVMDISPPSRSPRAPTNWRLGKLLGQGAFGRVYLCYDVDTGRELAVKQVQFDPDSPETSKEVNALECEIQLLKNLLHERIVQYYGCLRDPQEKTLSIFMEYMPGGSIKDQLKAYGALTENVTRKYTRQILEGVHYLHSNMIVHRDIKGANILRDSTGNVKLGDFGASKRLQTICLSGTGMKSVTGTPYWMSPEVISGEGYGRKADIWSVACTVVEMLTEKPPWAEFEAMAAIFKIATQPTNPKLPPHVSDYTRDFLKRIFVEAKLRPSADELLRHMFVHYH
Sequence of MAP3K1 (human) (Q13233 whole entry, looked up): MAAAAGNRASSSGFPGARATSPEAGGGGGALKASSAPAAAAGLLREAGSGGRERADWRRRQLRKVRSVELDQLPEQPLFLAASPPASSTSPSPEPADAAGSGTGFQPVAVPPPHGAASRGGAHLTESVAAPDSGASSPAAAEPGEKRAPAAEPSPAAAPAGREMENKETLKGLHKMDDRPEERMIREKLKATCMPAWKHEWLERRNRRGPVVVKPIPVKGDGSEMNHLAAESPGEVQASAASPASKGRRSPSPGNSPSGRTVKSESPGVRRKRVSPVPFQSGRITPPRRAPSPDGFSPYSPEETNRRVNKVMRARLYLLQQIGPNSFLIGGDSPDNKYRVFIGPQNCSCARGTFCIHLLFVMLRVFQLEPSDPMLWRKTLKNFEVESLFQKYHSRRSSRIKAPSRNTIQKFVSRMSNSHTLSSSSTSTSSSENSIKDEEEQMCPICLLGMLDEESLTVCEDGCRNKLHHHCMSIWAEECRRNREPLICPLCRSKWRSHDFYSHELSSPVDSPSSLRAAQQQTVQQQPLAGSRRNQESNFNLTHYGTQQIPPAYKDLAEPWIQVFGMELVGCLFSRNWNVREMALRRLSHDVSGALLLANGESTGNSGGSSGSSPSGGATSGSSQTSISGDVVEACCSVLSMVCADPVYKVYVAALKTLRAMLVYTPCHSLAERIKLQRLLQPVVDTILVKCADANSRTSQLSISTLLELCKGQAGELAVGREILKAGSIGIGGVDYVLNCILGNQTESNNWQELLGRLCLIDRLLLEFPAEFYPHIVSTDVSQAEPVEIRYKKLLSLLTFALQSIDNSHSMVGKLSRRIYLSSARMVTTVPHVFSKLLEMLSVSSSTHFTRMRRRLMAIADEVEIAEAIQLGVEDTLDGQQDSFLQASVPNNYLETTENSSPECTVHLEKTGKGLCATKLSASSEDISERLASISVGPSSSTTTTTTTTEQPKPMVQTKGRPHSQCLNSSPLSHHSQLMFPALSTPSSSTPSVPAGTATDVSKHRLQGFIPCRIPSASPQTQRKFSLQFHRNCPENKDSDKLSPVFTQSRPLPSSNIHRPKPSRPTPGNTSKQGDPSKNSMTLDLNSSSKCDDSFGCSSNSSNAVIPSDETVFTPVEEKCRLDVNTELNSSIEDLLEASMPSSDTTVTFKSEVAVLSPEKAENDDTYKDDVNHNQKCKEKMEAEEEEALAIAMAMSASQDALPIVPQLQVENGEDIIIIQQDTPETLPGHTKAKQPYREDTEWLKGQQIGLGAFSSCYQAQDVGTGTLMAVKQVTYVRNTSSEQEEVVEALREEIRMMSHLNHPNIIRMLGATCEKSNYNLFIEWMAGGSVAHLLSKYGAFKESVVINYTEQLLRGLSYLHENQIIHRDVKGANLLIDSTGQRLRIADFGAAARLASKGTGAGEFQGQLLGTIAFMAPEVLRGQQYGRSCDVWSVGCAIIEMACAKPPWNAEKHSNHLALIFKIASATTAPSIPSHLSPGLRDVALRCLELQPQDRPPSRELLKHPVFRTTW
Sequence of IRAK3 (human) (Q9Y616 whole entry, looked up): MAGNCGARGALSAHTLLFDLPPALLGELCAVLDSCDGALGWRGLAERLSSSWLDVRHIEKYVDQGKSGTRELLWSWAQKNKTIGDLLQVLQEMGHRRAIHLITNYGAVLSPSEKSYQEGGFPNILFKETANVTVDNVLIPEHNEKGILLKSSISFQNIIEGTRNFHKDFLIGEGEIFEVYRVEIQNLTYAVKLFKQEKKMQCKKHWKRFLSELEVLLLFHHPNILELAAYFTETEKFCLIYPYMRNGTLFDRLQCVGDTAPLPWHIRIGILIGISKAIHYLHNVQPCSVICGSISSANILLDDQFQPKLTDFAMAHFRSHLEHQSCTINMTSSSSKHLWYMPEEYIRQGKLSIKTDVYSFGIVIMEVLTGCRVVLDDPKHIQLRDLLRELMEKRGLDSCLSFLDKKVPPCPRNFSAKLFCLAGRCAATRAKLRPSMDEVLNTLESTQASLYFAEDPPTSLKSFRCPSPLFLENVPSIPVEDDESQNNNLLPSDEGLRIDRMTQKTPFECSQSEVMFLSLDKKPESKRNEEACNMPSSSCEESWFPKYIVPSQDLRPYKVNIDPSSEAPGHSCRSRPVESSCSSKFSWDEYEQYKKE

CN1CC[C@H](c2c(O)cc(O)c3c(=O)cc(-c4ccccc4Cl)oc23)[C@H](O)C1
IC50 (EPHA4 (human)): > 10 µM
IC50 (MAP3K1 (human)): > 10 µM
IC50 (PIK3C2B (human)): > 10 µM
IC50 (MAP2K5 (human)): 9.71 µM
IC50 (FYN (human)): > 10 µM
IC50 (IRAK3 (human)): > 10 µM
IC50 (MAP3K2 (human)): > 10 µM
IC50 (PDPK1 (human)): > 10 µM
IC50 (LYN (human)): > 10 µM
